One series addresses T1, HIV-integrase (Human immunodeficiency virus type 1 group M subtype B, UniProt P04585).
T1 construct: 0.26 ng of recombinant integrase was incubated with the beads
Description: HIV-Integrase Inhibition Activity (SPA bead strand-transfer assay). The class given is biochemical. The settings on record: 10 μM compound; recombinant integrase. On the procedure: For each reaction, 5 pmole of biotin labeled substrate DNA was bound to 100 ug of Streptavidin coated PVT SPA beads (Amersham Pharmacia Biotech). 0.26 ng of recombinant integrase was incubated with the beads for 90 min at 37 C. Unbound enzyme was removed by washing the complex followed by addition of inhibitors and 0.1 fmol of P33 labeled target DNA. Reaction was stopped by adding EDTA to a final concentration of 10 mM. Samples were counted in TopCountNXT (Packard) and the CPM was used as a measure of integration. Reaction condition was as described in A. Engelman and R. Craigie, J. Virol. 69, 5908-5911 (1995). The sequences of substrate and target DNA were described in Nucleic Acid Research 22, 1121-1122 (1994). Compounds of this invention tested in this assay have IC50's of approximately 0.01 to 25 μM.

For `CON(Cc1ccc(F)cc1)C(=O)/C=C(\O)C(=O)NS(=O)(=O)c1cn(C)cn1` [Example 14, 3-Hydroxy-4-(1-methyl-1H-imidazole-4-sulfonylamino)-4-oxo-but-2-enoic acid (4-fluoro-benzyl)-methoxy-amide], the inhibition at 10 µM on HIV-integrase amounted to 93%.

Regarding `CON(C(=O)/C=C(\O)C(=O)NS(C)(=O)=O)C(C)c1ccc(F)cc1` (stereo not shown) [Example 26, 3-Hydroxy-4-methanesulfonylamino-4-oxo-but-2-enoic acid[1-(4-fluoro-phenyl)-ethyl]-methoxy-amide], the inhibition at 10 µM on HIV-integrase amounted to 99%.

Consider `CON(Cc1ccc(F)cc1)C(=O)/C=C(\O)C(=O)NS(=O)(=O)C1CCCCC1` [Example 5, 4-Cyclohexanesulfonylamino-3-hydroxy-4-oxo-but-2-enoic acid (4-fluoro-benzyl)-methoxy-amide], for which the inhibition at 10 µM on HIV-integrase came to 99%.

With `CON(Cc1ccc(F)cc1)C(=O)/C=C(\O)C(=O)NS(=O)(=O)C1(CC2CC2)CC1` [Example 19, 4-(1-Cyclopropylmethyl-cyclopropanesulfonylamino)-3-hydroxy-4-oxo-but-2-enoic acid (4-fluoro-benzyl)-methoxy-amide], the inhibition at 10 µM on HIV-integrase is 99%.

`CON(Cc1ccc(F)cc1)C(=O)/C=C(\O)C(=O)NS(=O)(=O)c1ccc(-c2cc(C(F)(F)F)n(C)n2)s1` [Example 17, 3-Hydroxy-4-[5-(1-methyl-5-trifluoromethyl-1H-pyrazol-3-yl)-thiophene-2-sulfonylamino]-4-oxo-but-2-enoic acid (4-fluoro-benzyl)-methoxy-amide]: at HIV-integrase, the inhibition at 10 µM amounted to 99%.

`CON(Cc1ccc(F)cc1)C(=O)/C=C(\O)C(=O)NS(=O)(=O)C1CC1` [Example 7, 4-Cyclopropanesulfonylamino-3-hydroxy-4-oxo-but-2-enoic acid (4-fluoro-benzyl)-methoxy-amide]: the inhibition at 10 µM at HIV-integrase turned out to be 99%.

With `CON(Cc1ccc(C)c(F)c1)C(=O)/C=C(\O)C(=O)NS(C)(=O)=O` [Example 25, 3-Hydroxy-4-methanesulfonylamino-4-oxo-but-2-enoic acid (3-fluoro-4-methyl-benzyl)-methoxy-amide], the inhibition at 10 µM at HIV-integrase was 99%.

For the molecule `CON(Cc1ccc(F)cc1)C(=O)/C=C(\O)C(=O)NS(=O)(=O)C1CCCC1` [Example 6, 4-Cyclopentanesulfonylamino-3-hydroxy-4-oxo-but-2-enoic acid (4-fluoro-benzyl)-methoxy-amide], the inhibition at 10 µM on HIV-integrase was 99%.

In the case of `CCOc1ccc2nc(S(=O)(=O)NC(=O)C(O)=CC(=O)N(Cc3ccc(F)cc3)OC)sc2c1` [Example 12, 4-(6-Ethoxy-benzothiazole-2-sulfonylamino)-3-hydroxy-4-oxo-but-2-enoic acid (4-fluoro-benzyl)-methoxy-amide], the inhibition at 10 µM on HIV-integrase was determined as 99%.

As to `CON(Cc1ccc(F)cc1)C(=O)/C=C(\O)C(=O)NS(=O)(=O)c1ccc(NC(C)=O)cc1` [Example 11, 4-(4-Acetylamino-benzenesulfonylamino)-3-hydroxy-4-oxo-but-2-enoic acid (4-fluoro-benzyl)-methoxy-amide], the inhibition at 10 µM at HIV-integrase is 99%.

For the molecule `CON(Cc1ccc(F)cc1)C(=O)/C=C(\O)C(=O)NS(=O)(=O)c1c(C)noc1C` [Example 8, 4-(3,5-Dimethyl-isoxazole-4-sulfonylamino)-3-hydroxy-4-oxo-but-2-enoic acid (4-fluoro-benzyl)-methoxy-amide], the inhibition at 10 µM on HIV-integrase amounted to 99%.

Consider `CON(Cc1ccc(C(=O)OC(C)(C)C)cc1)C(=O)/C=C(\O)C(=O)NS(C)(=O)=O` [Example 24, 4-{[(3-Hydroxy-4-methanesulfonylamino-4-oxo-but-2-enoyl)-methoxy-amino]-methyl}-benzoic acid tert-butyl ester], for which the inhibition at 10 µM on HIV-integrase was determined as 15%.

For the molecule `CCN1CCCC1CNC(=O)c1cc(S(=O)(=O)NC(=O)/C(O)=C/C(=O)N(Cc2ccc(F)cc2)OC)ccc1OC` (stereo not shown) [Example 15, N-(1-Ethyl-pyrrolidin-2-ylmethyl)-5-[3-[(4-fluoro-benzyl)-methoxy-carbamoyl]-2-hydroxy-acryloylsulfamoyl]-2-methoxy-benzamide], the inhibition at 10 µM at HIV-integrase is 93%.

On to `CON(Cc1ccc(F)cc1)C(=O)/C=C(\O)C(=O)NS(=O)(=O)c1sc(C)nc1C` [Example 13, 4-(2,4-Dimethyl-thiazole-5-sulfonylamino)-3-hydroxy-4-oxo-but-2-enoic acid (4-fluoro-benzyl)-methoxy-amide], for which the inhibition at 10 µM at HIV-integrase amounted to 98%.

In the case of `CON(Cc1ccc(F)cc1Cl)C(=O)/C=C(\O)C(=O)NS(C)(=O)=O` [Example 28, 3-Hydroxy-4-methanesulfonylamino-4-oxo-but-2-enoic acid (2-chloro-4-fluoro-benzyl)-methoxy-amide], the melting point is 144 °C (dec.). Also, at HIV-integrase, the inhibition at 10 µM worked out at 99%.

As for `CON(Cc1ccc(F)cc1)C(=O)/C=C(\O)C(=O)NS(=O)(=O)C1(Cc2ccccc2)CC1` [Example 20, 4-(1-Benzyl-cyclopropanesulfonylamino)-3-hydroxy-4-oxo-but-2-enoic acid (4-fluoro-benzyl)-methoxy-amide], the inhibition at 10 µM on HIV-integrase turned out to be 99%.

On to `CON(Cc1ccc(F)cc1)C(=O)/C=C(\O)C(=O)NS(=O)(=O)C1CCS(=O)(=O)C1` (stereo not shown) [Example 16, 4-(1,1-Dioxo-tetrahydro-1×6-thiophene-3-sulfonylamino)-3-hydroxy-4-oxo-but-2-enoic acid (4-fluoro-benzyl)-methoxy-amide], for which, at HIV-integrase, the inhibition at 10 µM was 98%.

For the molecule `CON(Cc1ccccc1OC(C)C)C(=O)/C=C(\O)C(=O)NS(C)(=O)=O` [Example 23, 3-Hydroxy-4-methanesulfonylamino-4-oxo-but-2-enoic acid (2-isopropoxy-benzyl)-methoxy-amide], the inhibition at 10 µM at HIV-integrase was 99%.

Regarding `CON(Cc1ccc(F)c(C)c1)C(=O)/C=C(\O)C(=O)NS(C)(=O)=O` [Example 22, 3-Hydroxy-4-methanesulfonylamino-4-oxo-but-2-enoic acid (4-fluoro-3-methyl-benzyl)-methoxy-amide], the melting point is 138 °C (dec.). Further, on HIV-integrase, the inhibition at 10 µM is 99%.

In turn, `CON(Cc1ccc(C(=O)O)cc1)C(=O)/C=C(\O)C(=O)NS(C)(=O)=O` [Example 21, 4-{[(3-Hydroxy-4-methanesulfonylamino-4-oxo-but-2-enoyl)-methoxy-amino]-methyl}-benzoic acid] returned a melting point of 119 to 124 °C. For the same molecule, at HIV-integrase, the inhibition at 10 µM is 30%.

Turning to `CON(Cc1ccc(F)cc1)C(=O)/C=C(\O)C(=O)NS(=O)(=O)c1cccc(C)n1` [Example 9, 3-Hydroxy-4-(6-methyl-pyridine-2-sulfonylamino)-4-oxo-but-2-enoic acid (4-fluoro-benzyl)-methoxy-amide], the inhibition at 10 µM on HIV-integrase amounted to 94%.

Turning to `CON(Cc1ccc(F)cc1)C(=O)/C=C(\O)C(=O)NS(C)(=O)=O` [Example 2, 3-Hydroxy-4-methanesulfonylamino-4-oxo-but-2-enoic acid (4-fluoro-benzyl)-methoxy-amide], the melting point was 137 °C (dec.). Moreover, the inhibition at 10 µM at HIV-integrase is 99%.

Take `CON(Cc1ccc(F)cc1)C(=O)/C=C(\O)C(=O)NS(=O)(=O)c1nnc(NC(C)=O)s1` [Example 3, 4-(5-Acetylamino-[1,3,4]thiadiazole-2-sulfonylamino)-3-hydroxy-4-oxo-but-2-enoic acid (4-fluoro-benzyl)-methoxy-amide]: at HIV-integrase, the inhibition at 10 µM was 99%.

Turning to `CN(C(=O)/C=C(\O)C(=O)NS(C)(=O)=O)C(Cc1ccc(Cl)cc1)Cc1ccc(Cl)cc1` [Example 29, 3-Hydroxy-4-methanesulfonylamino-4-oxo-but-2-enoic acid [1-(4-chloro-benzyl)-2-(4-chloro-phenyl)-ethyl]-methyl-amide], the inhibition at 10 µM on HIV-integrase is 86%.

As for `CON(Cc1ccc(F)cc1)C(=O)/C=C(\O)C(=O)NS(=O)(=O)CC1CCC1` [Example 4, 4-Cyclobutylmethanesulfonylamino-3-hydroxy4-oxo-but-2-enoic acid (4-fluoro-benzyl)-methoxy-amide], the inhibition at 10 µM at HIV-integrase is 99%.

For `CON(Cc1ccc(F)cc1)C(=O)/C=C(\O)C(=O)NS(=O)(=O)c1ccc(Cl)s1` [Example 10, 4-(5-Chloro-thiophene-2-sulfonylamino)-3-hydroxy-4-oxo-but-2-enoic acid (4-fluoro-benzyl)-methoxy-amide], the inhibition at 10 µM on HIV-integrase was found to be 95%.

In the case of `CCCC1(S(=O)(=O)NC(=O)/C(O)=C/C(=O)N(Cc2ccc(F)cc2)OC)CC1` [Example 18, 3-Hydroxy-4-oxo-4-(1-propyl-cyclopropanesulfonylamino)-but-2-enoic acid (4-fluoro-benzyl)-methoxy-amide], on HIV-integrase, the inhibition at 10 µM was found to be 99%.

As to `CON(CCCc1ccc(F)cc1)C(=O)/C=C(\O)C(=O)NS(C)(=O)=O` [Example 30, 3-Hydroxy-4-methanesulfonylamino-4-oxo-but-2-enoic acid [3-(4-fluoro-phenyl)-propyl]-methoxy-amide], the inhibition at 10 µM at HIV-integrase was determined as 98%.

As to `CON(C(=O)/C=C(\O)C(=O)NS(C)(=O)=O)C(c1ccc(F)cc1)c1ccc(F)cc1` [Example 27, 3-Hydroxy-4-methanesulfonylamino-4-oxo-but-2-enoic acid [bis-(4-fluoro-phenyl)-methyl]-methoxy-amide], the inhibition at 10 µM at HIV-integrase was 60%.

For the molecule `CON(Cc1ccc(F)cc1)C(=O)/C=C(\O)C(=O)NS(=O)(=O)c1ccc(C)cc1` [Example 1, 3-Hydroxy-4-oxo-4-(toluene-4-sulfonylamino)-but-2-enoic acid (4-fluoro-benzyl)-methoxy-amide], the inhibition at 10 µM on HIV-integrase worked out at 99%.

The values above are taken from patent US6890942B2, “Acyl sulfonamides as inhibitors of HIV integrase” (Bristol-Myers Squibb Company, priority 2003, dated 2005).
